Test results from patent US7151105B2, “Inhibitors of Hepatitis C virus RNA-dependent RNA polymerase, and compositions and treatments using the same” (Agouron Pharmaceuticals, Inc., priority 2004, dated 2006).
Structures can show the parent of a compound that is named as a salt.

Each compound was assayed against T1, Recombinant HCV polymerase (Hepatitis C virus genotype 1b, UniProt P26663) (assay: biochemical). Settings: inhibition of polymerase-directed transcription; 30 min at 30° C; 30 nM enzyme; cpm data in triplicate.
T1 construct: Recombinant HCV polymerase was tested for its ability to perform primer/template-directed transcription
T1 sequence (P26663 2420-3010): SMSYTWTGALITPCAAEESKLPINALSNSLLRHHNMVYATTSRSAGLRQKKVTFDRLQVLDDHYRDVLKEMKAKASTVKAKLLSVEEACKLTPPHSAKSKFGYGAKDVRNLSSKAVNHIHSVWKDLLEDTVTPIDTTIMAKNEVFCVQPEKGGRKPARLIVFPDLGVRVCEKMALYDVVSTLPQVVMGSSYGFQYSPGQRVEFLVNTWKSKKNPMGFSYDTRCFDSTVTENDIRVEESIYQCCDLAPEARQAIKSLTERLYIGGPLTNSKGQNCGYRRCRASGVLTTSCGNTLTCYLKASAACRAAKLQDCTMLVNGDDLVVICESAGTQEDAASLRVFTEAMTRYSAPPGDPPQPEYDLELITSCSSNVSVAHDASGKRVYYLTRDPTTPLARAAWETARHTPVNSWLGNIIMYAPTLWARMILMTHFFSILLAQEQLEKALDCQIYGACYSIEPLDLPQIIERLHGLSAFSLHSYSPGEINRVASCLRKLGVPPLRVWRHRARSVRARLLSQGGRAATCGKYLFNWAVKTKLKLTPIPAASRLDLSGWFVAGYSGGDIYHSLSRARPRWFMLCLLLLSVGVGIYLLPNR
Outline: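 Primer/template-directed RNA synthesis by 2.5 pmol HCV polymerase on poly(rC)300/biotin-dG12 with 1 μM GTP plus α-32P-GTP, in pH 7.2 Tris buffer with 10 mM MgCl2, for 30 min at 30 °C. Products were filter-captured and counted, with 1% DMSO final. IC50 was fitted from triplicate cpm; percent inhibition was reported where IC50 was impractical.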

IC50 | Structure (SMILES)
6 nM | CCc1cc(CCC2(C3CCCC3)CC(O)=C(Cc3nc4nc(C)cc(C)n4n3)C(=O)O2)ccc1C(=O)NC (stereo not shown) [A(121), 4-(2-{2-cyclopentyl-5-[(5,7-dimethyl[1,2,4]triazolo[1,5-a]pyrimidin-2-yl)methyl]-4-hydroxy-6-oxo-3,6-dihydro-2H-pyran-2-yl}ethyl)-2-ethyl-N-methylbenzamide]
4 nM | CCc1cc(CCC2(C3CCCC3)CC(O)=C(Cc3nc4nc(C)cc(C)n4n3)C(=O)O2)ccc1Oc1nccs1 (stereo not shown) [A(122), 6-Cyclopentyl-3-[(5,7-dimethyl[1,2,4]triazolo[1,5-a]pyrimidin-2-yl)methyl]-6-{2-[3ethyl-4-(1,3thiazol-2-yloxy)phenyl]ethyl}-4hydroxy-5,6dihydro-2H-pyran-2-one]
8 nM | CCc1cc(CCC2(C3CCCC3)CC(O)=C(Cc3nc4nc(C)cc(C)n4n3)C(=O)O2)c(C)nc1N (stereo not shown) [A(124), 6-[2-(6-Amino-5-ethyl-2-methylpyridin-3-yl)ethyl]-6-cyclopentyl-3-[(5,7-dimethyl[1,2,4]triazolo[1,5-a]pyrimidin-2-yl)methyl]-4-hydroxy-5,6-dihydro-2H-pyran-2-one]
10 nM | CCc1cc(CCC2(C3CCCC3)CC(O)=C(Cc3nc4nc(C)cc(C)n4n3)C(=O)O2)ccc1CN (stereo not shown) [A(125), 6-{2-[4-(Aminomethyl)-3-ethylphenyl]ethyl}-6-cyclopentyl-3-[(5,7-dimethyl[1,2,4]triazolo[1,5-a]pyrimidin-2-yl)methyl]-4-hydroxy-5,6-dihydro-2H-pyran-2-one hydrochloride]
6 nM | CCc1cc(CCC2(C3CCCC3)CC(O)=C(Cc3nc4nc(C)cc(C)n4n3)C(=O)O2)ccc1CNC(=O)OC(C)(C)C (stereo not shown) [A(126)]
130 nM | CCc1cc(CCC2(C3CCCC3)CC(O)=C(Cc3nc4nc(C)cc(C)n4n3)C(=O)O2)ccc1CNCC1CC1 (stereo not shown) [A(127), 6-Cyclopentyl-6-[2-(4-{[(cyclopropylmethyl)amino]methyl}-3-ethylphenyl)ethyl]-3-[(5,7-dimethyl[1,2,4]triazolo[1,5-a]pyrimidin-2-yl)methyl]-4-hydroxy-5,6-dihydro-2H-pyran-2-one]
6 nM | CCc1cc(CCC2(C3CCCC3)CC(O)=C(Cc3nc4nc(C)cc(C)n4n3)C(=O)O2)ccc1CNS(C)(=O)=O (stereo not shown) [A(128)]
2 nM | CCc1cc(CCC2(C3CCCC3)CC(O)=C(Cc3nc4nc(C)cc(C)n4n3)C(=O)O2)ccc1CNC(C)=O (stereo not shown) [A(131), N-[4-(2-{2-cyclopentyl-5-[(5,7-dimethyl[1,2,4]triazolo[1,5-a]pyrimidin-2-yl)methyl]-4-hydroxy-6-oxo-3,6-dihydro-2H-pyran-2-yl}ethyl)-2-ethylbenzyl]acetamide]
3 nM | CCc1cc(CCC2(C3CCCC3)CC(O)=C(Cc3nc4nc(C)cc(C)n4n3)C(=O)O2)ccc1-c1ncco1 (stereo not shown) [A(134), 6-cyclopentyl-3-[(5,7-dimethyl[1,2,4]triazolo[1,5-a]pyrimidin-2-yl)methyl]-6-{2-[3-ethyl-4-(1,3-oxazol-2-yl)phenyl]ethyl}-4-hydroxy-5,6-dihydro-2H-pyran-2-one]
210 nM | CCc1cc(CCC2(C3CCCC3)CC(=O)CC(=O)O2)ccc1-c1ncco1 (stereo not shown) [A(135), 6-Cyclopentyl-6-{2-[3-ethyl-4-(1,3-oxazol-2-yl)phenyl]ethyl}dihydro-2H-pyran-2,4(3H)-dione]
3 nM | CCc1cc(CCC2(C3CCCC3)CC(O)=C(Cc3nc4ncccn4n3)C(=O)O2)ccc1-c1ncco1 (stereo not shown) [A(136), 6-Cyclopentyl-6-{2-[3-ethyl-4-(1,3-oxazol-2-yl)phenyl]ethyl}-4-hydroxy-3-([1,2,4]triazolo[1,5-a]pyrimidin-2-ylmethyl)-5,6-dihydro-2H-pyran-2-one]
300 nM | CCc1cc(CCC2(C3CCCC3)CC(O)=C(Cc3nc4ncc(C)cn4n3)C(=O)O2)ccc1-c1ncco1 (stereo not shown) [A(137), 6-Cyclopentyl-6-{2-[3-ethyl-4-(1,3-oxazol-2-yl)phenyl]ethyl}-4-hydroxy-2-[(6-methyl[1,2,4]triazolo[1,5-a]pyrimidin-2-yl)methyl]-5,6-dihydro-2H-pyran-2-one]
60 nM | Cc1cc(C)n2nc(CC3=C(O)CC(CCc4ccc(S(C)(=O)=O)c(Cl)c4)(C4CCCC4)OC3=O)nc2n1 (stereo not shown) [B(1), 6-{2-[3-Chloro-4-(methylsulfonyl)phenyl]ethyl}-6-cyclopentyl-3-[(5,7-dimethyl[1,2,4]triazolo[1,5-a]pyrimidin-2-yl)methyl]hydroxy-5,6-dihydro-2H-pyran-2-one]
48000 nM | CS(=O)(=O)c1ccc(CCC2(C3CCCC3)CC(=O)CC(=O)O2)cc1Cl (stereo not shown) [B(2), 6-{2-[3-Chloro-4-(methylsulfonyl)phenyl]ethyl}-6-cyclopentyldihydro-2H-pyran-2,4(3H)-dione]
6400 nM | CS(=O)(=O)c1ccc(CCC2(C3CCCC3)CC(=O)CC(=O)O2)cc1C(F)(F)F (stereo not shown) [B(3)]
6 nM | Cc1cc(C)n2nc(CC3=C(O)CC(CCc4ccc(S(C)(=O)=O)c(C(F)(F)F)c4)(C4CCCC4)OC3=O)nc2n1 (stereo not shown) [B(4), 6-Cyclopentyl-3-[(5,7-dimethyl[1,2,4]triazolo[1,5-a]pyrimidin-2-yl)methyl]-4-hydroxy-6-{2-[4-(methylsulfonyl)-3-(trifluoromethyl)phenyl]ethyl}-5,6-dihydro-2H-pyran-2-one]

IC50 | Structure (SMILES)
22000 nM | COC(=O)c1ccc(CCC2(C3CCCC3)CC(=O)CC(=O)O2)cc1F (stereo not shown) [B(5), Methyl 4-[2-(2-cyclopentyl-4,6-dioxotetrahydro-2H-pyran-2-yl)ethyl]-2-fluorobenzoate]
12000 nM | O=C1CC(=O)OC(CCc2ccc(C(=O)O)c(F)c2)(C2CCCC2)C1 (stereo not shown) [B(6), 4-[2-(2-Cyclopentyl-4,6-dioxotetrahydro-2H-pyran-2-yl)ethyl]-2-fluorobenzoic acid]
7000 nM | COC(=O)c1ccc(CCC2(C3CCCC3)CC(=O)CC(=O)O2)cc1Cl (stereo not shown) [B(7)]
29 nM | COC(=O)c1ccc(CCC2(C3CCCC3)CC(O)=C(Cc3nc4nc(C)cc(C)n4n3)C(=O)O2)cc1F (stereo not shown) [B(8), Methyl 4-(2-{2-cyclopentyl-5-[(5,7-dimethyl[1,2,4]triazolo[1,5-a]pyrimidin-2-yl)methyl]-4-hydroxy-6oxo-3,6-dihydro-2H-pyran-2-yl}ethyl)-2-fluorobenzoate]
6 nM | COC(=O)c1ccc(CCC2(C3CCCC3)CC(O)=C(Cc3nc4nc(C)cc(C)n4n3)C(=O)O2)cc1Cl (stereo not shown) [B(9), Methyl 2-chloro-4-(2-{2-cyclopentyl-5-[(5,7-dimethyl[1,2,4]triazolo[1,5-a]pyrimidin-2-yl)methyl]-4-hydroxy-6-oxo-3,6-dihydro-2H-pyran-2-yl}ethyl)benzoate]
30000 nM | O=C1CC(=O)OC(CCc2ccc(C(=O)O)c(Cl)c2)(C2CCCC2)C1 (stereo not shown) [B(10)]
260 nM | Cc1cc(C)n2nc(CC3=C(O)CC(CCc4ccc(C(=O)O)c(F)c4)(C4CCCC4)OC3=O)nc2n1 (stereo not shown) [B(11), 4-(2-{2-Cyclopentyl-5-[(5,7-dimethyl[1,2,4]triazolo[1,5-a]pyrimidin-2-yl)methyl]-4-hydroxy-6-oxo-3,6dihydro-2H-pyran-2-yl}ethyl)-2-fluorobenzoic acid]
110 nM | Cc1cc(C)n2nc(CC3=C(O)CC(CCc4ccc(C(=O)O)c(Cl)c4)(C4CCCC4)OC3=O)nc2n1 (stereo not shown) [B(12)]
4 nM | CCOC(=O)c1cnc2nc(CC3=C(O)CC(CCc4ccc(C(C)(C)C#N)c(Cl)c4)(C4CCCC4)OC3=O)nn2c1 (stereo not shown) [B(13), Ethyl 2-[(6-{2-[3-chloro-4-(1-cyano-1-methylethyl)phenyl]ethyl}-6-cyclopentyl-4-hydroxy-2-oxo-5,6-dihydro-2H-pyran-3-yl)methyl][1,2,4]triazolo[1,5-a]pyrimidine-6-carboxylate]
26 nM | CC(C)(C#N)c1ccc(CCC2(C3CCCC3)CC(O)=C(Cc3cn4nccnc4n3)C(=O)O2)cc1Cl (stereo not shown) [B(14), 2-(2-Chloro-4-{2-[2-cyclopentyl-4-hydroxy-5-(imidazo[1,2-b][1,2,4]triazin-6-ylmethyl)-6-oxo-3,6-dihydro-2H-pyran-2-yl]ethyl}phenyl)-2-methylpropanenitrile]
19 nM | COc1cc(OC)c(CCC2(C3CCCC3)CC(O)=C(Cc3nc(-c4cnccn4)nn3C)C(=O)O2)cc1Cl (stereo not shown) [B(15), 6-[2-(5-Chloro-2,4-dimethoxyphenyl)ethyl]-6-cyclopentyl-4-hydroxy-3-[(1-methyl-3-pyrazin-2-yl-1H-1,2,4-triazol-5-yl)methyl]-5,6-dihydro-2H-pyran-2-one]
53 nM | COc1cc(OC)c(CCC2(C3CCCC3)CC(O)=C(Cc3nc(-c4ccccn4)nn3C)C(=O)O2)cc1Cl (stereo not shown) [B(16), 6-[2-(5-Chloro-2,4-dimethoxyphenyl)ethyl]-6-cyclopentyl-4-hydroxy-3-[(1-methyl-3-pyridin-2-yl-1H-1,2,4-triazol-5-yl)methyl]-5,6-dihydro-2H-pyran-2-one]
26 nM | COc1cc(OC)c(CCC2(C3CCCC3)CC(O)=C(Cc3nc(-c4ccccc4)nn3C)C(=O)O2)cc1Cl (stereo not shown) [B(17), 6-[2-(5-Chloro-2,4-dimethoxyphenyl)ethyl]-6-cyclopentyl-4-hydroxy-3-[(1-methyl-3-phenyl-1H-1,2,4-triazol-5-yl)methyl]-5,6-dihydro-2H-pyran-2-one]
170 nM | CCn1nc(C)c(CC2=C(O)CC(CCc3cc(Cl)c(OC)cc3OC)(C3CCCC3)OC2=O)c1C (stereo not shown) [B(18), 6-[2-(5-Chloro-2,4-dimethoxyphenyl)ethyl]-6-cyclopentyl-3-[(1-ethyl-3,5-dimethyl-1H-pyrazol-4-yl)methyl]-4-hydroxy-5,6-dihydro-2H-pyran-2-one]
1100 nM | CCn1nc(C)c(CC2=C(O)CC(CCc3ccc(OC(C)C)c(Cl)c3)(C3CCCC3)OC2=O)c1C (stereo not shown) [B(19), 6-[2-(3-chloro-4-isopropoxyphenyl)ethyl]-6-cyclopentyl-3-[(1-ethyl-3,5-dimethyl-1H-pyrazol-4-yl)methyl]-4-hydroxy-5,6-dihydro-2H-pyran-2-one]
